# Measured values reported in patent publication US4410548A, “Propanolamine derivatives” (Reckitt & Colman Products Limited, priority 1980, dated 1983).
# Structures can show the parent of a compound that is named as a salt. Where two headings read alike, the source gives them in different places.
# Assays:
# DOCA hypertensive rats [1] = experiment: antihypertensive activity (mean arterial blood pressure) after oral administration in DOCA hypertensive rats; type: in vivo, rat; settings: for maximal percent changes in MABP: DOCA rats; for MABP, maximum percent changes: Table 2 (in brackets); for MABP, summation of percent changes: Table 2
# Procedure: (b) DOCA = Desoxycorticosterone acetate.
# (c) MABP = Mean arterial blood pressure. Negative values represent falls
# in blood pressure and conversely positive values increases in blood
# pressure. The values of maximum percent changes are mean values taken fro
# groups of 5-7 DOCA hypertensive rats.
# (d) Values in the final column represent duration of action of the
# relative increases and decreases in blood pressure with the respective
# treatments. Group mean percent changes are added together for the times o
# 1, 2, 3 and 5 hours after oral dosage. […]
# Values in the final column are summation of percent changes with, in
# brackets the maximum percent changes.
# DOCA hypertensive rats [2] = experiment: heart rate in DOCA hypertensive rats after oral administration; settings: both doses (5 and 50 mg/kg)
# β-adrenoreceptor = target: T1, β-adrenoreceptor (Cavia porcellus, UniProt H0W3H1); experiment: antagonism of positive chronotropic responses to (-)-isoprenaline in isolated guinea-pig right atria; type: cell-based; settings: for times (±)-propranolol was more potent as an antagonist than the compound / times less active than (±)-propranolol: β-adrenoreceptor antagonism in vitro
# T1 construct: isolated guinea-pig right atria; from tissue; host or cells: isolated guinea-pig right atria
# Description: Tolamolol is the approved name for 1-[2-(4-carbamoylphenoxy)ethylamino]-3-(2-methylphenoxy)propan-2-ol.
# The values in this table are the mean of 4-8
# DOCA hypertensive rats [3] = experiment: toxicity / deaths seen in the antihypertensive test in DOCA rats; type: in vivo, rat; settings: oral dose 100 mg/kg
# Description: (d) With Example B in the antihypertensive test at an oral dose of 100
# [4] = oral dose 50 mg/kg, mean of groups of 5-7, negative = fall
# [5] = oral dose 50 mg/kg, MABP, sum of 1, 2, 3 and 5 hours after dosage
# [6] = oral dose 100 mg/kg, mean of groups of 5-7, negative = fall
# [7] = oral dose 100 mg/kg, MABP, sum of 1, 2, 3 and 5 hours after dosage
# [8] = Table 1, isolated guinea-pig atria, mean of 4-8 experiments, read-out: pA2 value against chronotropic responses of isoprenaline (converted)
# [9] = Table 2, isolated guinea-pig atria vs isoprenaline, read-out: β-Antag. pA2 (converted)
# T1 sequence (H0W3H1 1-470): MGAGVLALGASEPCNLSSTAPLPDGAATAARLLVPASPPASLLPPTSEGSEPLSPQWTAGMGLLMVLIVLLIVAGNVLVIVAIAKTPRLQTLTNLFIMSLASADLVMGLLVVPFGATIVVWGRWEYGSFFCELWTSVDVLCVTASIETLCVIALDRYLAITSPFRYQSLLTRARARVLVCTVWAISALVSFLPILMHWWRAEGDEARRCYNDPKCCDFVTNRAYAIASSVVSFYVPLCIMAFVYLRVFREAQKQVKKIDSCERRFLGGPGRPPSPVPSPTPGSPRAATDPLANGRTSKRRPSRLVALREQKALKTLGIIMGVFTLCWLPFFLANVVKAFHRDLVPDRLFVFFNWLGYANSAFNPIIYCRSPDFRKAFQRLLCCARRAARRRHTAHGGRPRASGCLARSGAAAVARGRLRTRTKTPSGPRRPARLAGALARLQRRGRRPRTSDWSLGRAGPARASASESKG
SMILES,maximal percent changes in MABP (DOCA hypertensive rats [1]; [4]),Summation of percent changes (DOCA hypertensive rats [1]; [5]),maximal percent changes in MABP (DOCA hypertensive rats [1]; [6]),Summation of percent changes (DOCA hypertensive rats [1]; [7]),Kb (β-adrenoreceptor; [8]),"MABP, maximum percent changes (DOCA hypertensive rats [1]; oral dose 100 mg/kg)","MABP, summation of percent changes (DOCA hypertensive rats [1]; oral dose 100 mg/kg)",other results
CC(C)NCC(O)COc1cccc2ccccc12 (racemic) [(±)-Propranolol],+11%,+38%,,,,,,"effect on blood pressure (DOCA hypertensive rats [1]; 50 mg/kg, p.o.): long-lasting increase in blood pressure; maximal percent changes in MABP (DOCA hypertensive rats [1]; oral dose 5 mg/kg, fall, group mean): -5%; Summation of percent changes (DOCA hypertensive rats [1]; oral dose 5 mg/kg, fall, sum of 1, 2, 3 and 5 hours): -6%; maximal percent changes in MABP (DOCA hypertensive rats [1]; oral dose 5 mg/kg, increase, group mean): +10%; Summation of percent changes (DOCA hypertensive rats [1]; oral dose 5 mg/kg, increase, sum of 1, 2, 3 and 5 hours): +15%; effect on mean blood pressure (DOCA hypertensive rats [1]; oral, 5.0 mg/kg): small increase in mean blood pressure followed by a non-significant transient fall; effect on heart rate (DOCA hypertensive rats [2]): decreased heart rate"
"Cc1ccccc1OCC(O)CNCCOc1ccc(C(N)=O)cc1 (racemic) [(±)-Tolamolol, 1-[2-(4-carbamoylphenoxy)ethylamino]-3-(2-methylphenoxy)propan-2-ol]",-20%,-47%,-30%,-88%,17 nM,,,"duration of blood pressure effect versus bradycardia (DOCA hypertensive rats [1]; oral, (±)-tolamolol): of a shorter duration than the bradycardia; effect on blood pressure (DOCA hypertensive rats [1]; oral, (±)-tolamolol): falls in blood pressure which were relatively transient; relative potency as β-adrenoreceptor antagonist (β-adrenoreceptor; in vitro, among the compounds of Table 1): most potent β-adrenoreceptor antagonists tested in vitro"
COc1cc(C)c([S+](C)[O-])cc1OCCNCC(O)COc1ccccc1C (stereo not shown) [A],,,,,,-37%,-127%,Kb (β-adrenoreceptor; [9]): 3160 nM
COc1cc([S+](C)[O-])c(C)cc1OCCNCC(O)COc1cccc(C)c1 (stereo not shown) [C],,,,,,-8%,-23%,"pD'2 (β-adrenoreceptor; Table 2, in pA2 column, negative log molar concentration depressing maximum agonist response by 50%, noncompetitive): 4.3; nature of interaction with isoprenaline (β-adrenoreceptor; adrenoreceptor antagonism test): noncompetitive in nature"
COc1cc([S+](C)[O-])c(C)cc1OCCNCC(O)COc1ccc(C)cc1 (stereo not shown) [D],,,,,,-23%,-82%,Kb (β-adrenoreceptor; [9]): 1170 nM
"COc1cc([S+](C)[O-])c(C)cc1OCCNCC(O)COc1ccccc1C.O=C(O)C(=O)O (stereo not shown) [Example 1, 1-[2-(2-Methoxy-5-methyl-4-methylsulphinylphenoxy)ethylamino]-3-(2-methylphenoxy)propan-2-ol oxalate salt]",-37%,-137%,-47%,-170%,380 nM,-47%,-170%,times (±)-propranolol was more potent as an antagonist than the compound (β-adrenoreceptor): ~20 times
"COc1cc(S(C)(=O)=O)c(C)cc1OCCNCC(O)COc1ccccc1.O=C(O)C(=O)O (stereo not shown) [Example 6, 1-[2-(2-Methoxy-5-methyl-4-methylsulphonylphenoxy)ethylamino]-3-phenoxypropan-2-ol oxalate salt]",,,-35%,-127%,191 nM,,,times (±)-propranolol was more potent as an antagonist than the compound (β-adrenoreceptor): approximately 10 times
"COc1cc2c(cc1OCCNCC(O)COc1ccccc1C)CCCC[S+]2[O-] (stereo not shown) [Example 8, 1-[2-(8-Methoxy-2,3,4,5-tetrahydro-1-benzothiepin-7-oxy)ethylamino]-3-(2-methylphenoxy)propan-2-ol S-oxide oxalate salt]",,,-43%,-161%,28.8 nM,,,times less active than (±)-propranolol (β-adrenoreceptor): 1.5 times
"COc1cc([S+](C)[O-])c(OC)cc1OCCNCC(O)COc1ccccc1C.O=C(O)C(=O)O (stereo not shown) [Example 10, 1-[2-(2,5-Dimethoxy-4-methylsulphinylphenoxy)ethylamino]-3-(2-methylphenoxy)propan-2-ol oxalate salt]",,,-36%,-131%,29.5 nM,,,times less active than (±)-propranolol (β-adrenoreceptor): 1.5 times
COc1ccc(OCCNCC(O)COc2ccccc2C)c([S+](C)[O-])c1 (stereo not shown) [Example B],,,,,,,,toxicity (MABP column) (DOCA hypertensive rats [3]; Table 2): toxic; deaths of test rats (DOCA hypertensive rats [3]; antihypertensive test): 5 of the 6 test rats died
